Measurements as given in US8008280B2, “Betulinol derivatives as anti-HIV agents” (priority 2004, dated 2011).
Like-named read-outs stand apart in the source and are kept apart here.

How the values were obtained:
HIV-1 IIIB isolate = experiment: HIV-1 inhibitory effect, p24 antigen capture ELISA, acutely infected 174XCEM cells; format: cell-based; details: 1 μg/ml (in DMSO); 4 days culture
174XCEM = experiment: Effect on cell viability, trypan blue dye exclusion; details: trypan blue dye exclusion at four days and seven days
Procedure: Human T-B hybridoma cell line 174XCEM was exposed to a low multiplicity of infection (“MOI”) (MOI=1.0) of stock HIV-1 IIIB isolate for 2 hours at 37° C., washed ×3 with phosphate buffered saline (“PBS”), then plated at 250,000 cells/well in the presence of various agents, shown in Table 10. Dimethyl sulfoxide (“DMSO”) buffer was used as a […] control. A commercially available synthetic peptide, thrombospondin peptide (“TSP”), known as having HIV-1 inhibitory activity, was used as an “inhibitory activity” control. Two HIV isolates were used, a patient isolate (“child HIV”), and the standard CXCR4 co-receptor utilizing isolate IIIB.
The cell samples were assessed by trypan blue dye exclusion at four days and seven days.

AZT-resistant strain = experiment: Anti-HIV activity against AZT-resistant patient isolates in MT-2 cells; format: cell-based
Excerpt: These isolates were used to infect MT-2 cells in vitro.

[1] = Solubility in DMSO diluted with culture medium (GC, standard solubility curve); format: physicochemical
Procedure: The residue was dissolved in chloroform analyzed on GC.
Ethyl ether was then evaporated.

[2] = In vivo tolerability in mice with prostate cancer cell xenografts; details: final concentration of 22% ethanol and 2×10−3 mol per liter of betulonic acid
another HIV-1 isolate = experiment: Effect on 174XCEM cells chronically infected with another HIV-1 isolate; format: cell-based; details: chronically infected 174XCEM cells; betulin diacetate single dose 1 μg/ml
Procedure: Agents were also evaluated for an effect on 174XCEM cells chronically infected with another HIV-1 isolate.

[3] = tested on: carcinoma cell line CO-115 of the large intestine; details: carcinoma cell line CO-115 (Ukkonen et al.); cited from earlier work
[4] = Solubilization in PBS containing human γ-globulin, human albumin and ethanol; format: physicochemical; details: 1 × 10^−3 mol/L
[5] = Solubility of betulonic acid in human serum; format: physicochemical; details: 1.34 mg in 31 μL neat ethanol diluted with 700 μL human serum; 4.2% final ethanol
cells = details: cited from earlier work
[6] = 1.0 mg in culture medium containing 20% DMSO

C=C(C)[C@@H]1CC[C@]2(CO)CC[C@]3(C)[C@H](CC[C@@H]4[C@@]5(C)CC[C@H](OC(C)=O)C(C)(C)[C@@H]5CC[C@]43C)[C@@H]12 [3-acetoxy betulin, 3-Acetoxy Betulin]
anti-HIV-1 activity (HIV-1 gag (p24) antigen, OD units, FIG. 6) (HIV-1 IIIB isolate): anti-HIV-1 activity superior to that previously disclosed in the art for other betulinol derivatives
effect on total cell number or cell viability (174XCEM): no effect on total cell number or cell viability

C=C(C)[C@@H]1CC[C@]2(COC(C)=O)CC[C@]3(C)[C@H](CC[C@@H]4[C@@]5(C)CC[C@H](O)C(C)(C)[C@@H]5CC[C@]43C)[C@@H]12 [28-acetoxy betulin, 28-Acetoxy Betulin]
anti-HIV-1 activity (HIV-1 gag (p24) antigen, OD units, FIG. 6) (HIV-1 IIIB isolate): anti-HIV-1 activity superior to that previously disclosed in the art for other betulinol derivatives
effect on total cell number or cell viability (174XCEM): no effect on total cell number or cell viability

Cc1cn([C@H]2C[C@H](N=[N+]=[N-])[C@@H](CO)O2)c(=O)[nH]c1=O [AZT, 3′-azido-3′-deoxythymidine, reference compound]
inhibition in the HIV infection, AZT-resistant strain (AZT-resistant strain; day 5 (FIG. 14)): ineffective

C=C(C)C1CCC2(C(=O)NCCCCC(NC(=O)C(CCCCNC(=O)C34CCC(C(=C)C)C3[C@@H]3CC[C@H]5[C@]6(C)CCC(=O)C(C)(C)[C@H]6CC[C@]5(C)[C@@]3(C)CC4)NC(=O)OC(C)(C)C)C(=O)O)CC[C@]3(C)[C@H](CC[C@@H]4[C@@]5(C)CCC(=O)C(C)(C)[C@@H]5CC[C@]43C)C12 (stereo partly shown) [Boc-Dimer]
Concentration of drug (mg/mL) [1, 6]: 0.6 mg/mL
Concentration of drug (mol/L) [1, 6]: 0.0005 mol/L
Con. in culture medium containing 20% DMSO ([1]; calculated (nominal) concentration): 0.0005 mol/L

C=C(C)C1CCC2(C(=O)NCCCCC(NC(=O)OC(C)(C)C)C(=O)O)CC[C@]3(C)[C@H](CC[C@@H]4[C@@]5(C)CCC(=O)C(C)(C)[C@@H]5CC[C@]43C)C12 (stereo partly shown) [Boc-Monomer]
Con. in culture medium containing 20% DMSO [1]: 0.001 mol/L
tolerability [2]: well tolerated

C=C(C)[C@@H]1CC[C@]2(COC(C)=O)CC[C@]3(C)[C@H](CC[C@@H]4[C@@]5(C)CC[C@H](OC(C)=O)C(C)(C)[C@@H]5CC[C@]43C)[C@@H]12 [betulin diacetate, Betulin Diacetate]
inhibition (release of virus from chronically infected cells) (another HIV-1 isolate): 20%

C=C(C)C1CCC2(COC)CCC3(C)C(CCC4C5(C)CCC(OC)C(C)(C)C5CCC43C)C12 (stereo not shown) [betulin dimethyl ether, Betulin Dimethyl ether]
anti-HIV-1 activity (HIV-1 gag (p24) antigen, OD units, FIG. 6) (HIV-1 IIIB isolate): anti-HIV-1 activity superior to that previously disclosed in the art for other betulinol derivatives
effect on total cell number or cell viability (174XCEM): no effect on total cell number or cell viability

C=C(C)[C@@H]1CC[C@]2(C(=O)O)CC[C@]3(C)[C@H](CC[C@@H]4[C@@]5(C)CC[C@H](O)C(C)(C)[C@@H]5CC[C@]43C)[C@@H]12 [betulinic acid, Betulinic Acid]
cytotoxic activity, LD 50 [3]: 0.375 mg/mL

C=C(C)C1CCC2(CO)CC[C@]3(C)[C@H](CC[C@@H]4[C@@]5(C)CCC(O)C(C)(C)[C@@H]5CC[C@]43C)C12 (stereo partly drawn) [betulinol, lup-20(29)-ene-3β, 28-diol]
inhibition (release of virus from chronically infected cells) (another HIV-1 isolate): minimal effect

C=C(C)[C@@H]1CC[C@]2(C=O)CC[C@]3(C)[C@H](CC[C@@H]4[C@@]5(C)CCC(=O)C(C)(C)[C@@H]5CC[C@]43C)[C@@H]12 [betulone aldehyde, Betulon Aldehyde]
inhibition (release of virus from chronically infected cells) (another HIV-1 isolate): minimal effect

C=C(C)C1CCC2(C(=O)O)CC[C@]3(C)[C@H](CC[C@@H]4[C@@]5(C)CCC(=O)C(C)(C)[C@@H]5CC[C@]43C)C12 (stereo partly shown) [betulonic acid, Betulonic Acid]
inhibition in the HIV infection, AZT-resistant strain (AZT-resistant strain; day 5 (FIG. 14)): 44%
inhibition in the HIV infection, AZT-resistant strain (AZT-resistant strain; day 8 (FIG. 15)): increased further
Con. in culture medium containing 20% DMSO [1]: 0.001 mol/L
amount of betulonic acid dissolved ([1]; 3 mg in culture medium containing 10% FBS with 1% DMSO, supernatant after centrifugation): 0.4 mg
Observation ([4]; 1.0 mg, ethanol 220 μL, γ-globulin 1.48 mL, albumin 0.49 mL): Cloudy
Observation ([4]; 1.3 mg, ethanol 280 μL, γ-globulin (27 mg/mL in PBS) 2.50 mL, albumin (42 mg/mL in PBS) 0 mL): Suspension
Observation [5]: Clear Solution
tolerability [2]: well tolerated
cytotoxicity, interfering with the proliferation of cells (cells): cytotoxic
